Structures are written as SMILES.

Drawing on BindingDB's records for patent US20260070887 (Shenzhen Zhongge Biological Technology Co., 2026), this text covers IC50 for nine compounds.

For this assay, the target named is T1, Kinesin-like protein KIF18A (Homo sapiens, UniProt Q8NI77).
T1 sequence (Q8NI77 whole entry): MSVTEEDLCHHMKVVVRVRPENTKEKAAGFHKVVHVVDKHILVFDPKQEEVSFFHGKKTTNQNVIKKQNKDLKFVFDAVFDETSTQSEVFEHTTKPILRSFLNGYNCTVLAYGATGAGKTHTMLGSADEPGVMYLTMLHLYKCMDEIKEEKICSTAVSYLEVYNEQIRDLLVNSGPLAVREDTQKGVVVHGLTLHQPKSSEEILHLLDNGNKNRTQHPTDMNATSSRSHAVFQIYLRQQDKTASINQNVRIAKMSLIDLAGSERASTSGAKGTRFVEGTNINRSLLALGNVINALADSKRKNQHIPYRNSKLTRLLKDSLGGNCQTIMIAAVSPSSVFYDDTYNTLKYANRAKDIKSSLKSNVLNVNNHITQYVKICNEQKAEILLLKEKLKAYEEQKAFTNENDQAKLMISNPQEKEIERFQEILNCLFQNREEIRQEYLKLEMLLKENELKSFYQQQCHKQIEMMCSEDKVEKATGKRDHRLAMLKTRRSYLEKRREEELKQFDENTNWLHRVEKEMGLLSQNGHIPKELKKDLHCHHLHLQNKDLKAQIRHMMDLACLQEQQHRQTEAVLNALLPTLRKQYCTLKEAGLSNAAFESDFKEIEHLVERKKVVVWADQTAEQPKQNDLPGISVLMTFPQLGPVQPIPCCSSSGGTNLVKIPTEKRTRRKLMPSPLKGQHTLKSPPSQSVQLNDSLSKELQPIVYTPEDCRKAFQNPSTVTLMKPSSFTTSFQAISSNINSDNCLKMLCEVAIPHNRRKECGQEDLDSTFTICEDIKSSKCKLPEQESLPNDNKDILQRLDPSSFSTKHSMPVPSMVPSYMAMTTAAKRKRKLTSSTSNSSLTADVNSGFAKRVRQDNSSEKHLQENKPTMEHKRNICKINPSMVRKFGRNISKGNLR
Kind of assay: Assay of the Inhibitory Effects on KIF18A Activity In Vitro (ADP-Glo Assay). Here is the method: Experimental Method 1. Preparation of 30 mL of reaction buffer: (1) 450 μL 1M Tris-HCl (pH=7.5)+300 μL 1M MgCl2+30 μL 10% Pluronic F-68 (ThermoFisher, 24040032-100 ml); (2) adjusting pH to 7.5, and adding water to adjust the volume to 30 mL. 2. Preparation of a 5 mg/mL pig microtubule (Microtubules; MT) (Cytoskeleton Inc, MT002) stock solution: (1) 10 mL PM buffer=150 μL 1 M PIPES (pH 7.0)+20 μL 0.5 mM MgCl2+100 μL 2 mM Taxol (Cytoskeleton Inc, TXD01)+9730 μL water. (2) MT (500 ag/tube): Adding 100 μL PM buffer to prepare a 5 mg/mL stock solution. Keeping the MT (Cytoskeleton Inc, MT002) at room temperature for 10-15 minutes, gently mixing and storing same at −80° C. 3. Preparation of 2 mL of kinase buffer: 2 mL reaction buffer+1 μL 2 mM Taxol (Cytoskeleton Inc, TXD01)+12 μL 5 mg/mL MT (Cytoskeleton Inc, MT002). 4. Preparation of 2×KIF18A (30 nM) (ChemPartner, CPB-P22-31645) working solution: 2.4 μL 10 μM KIF18A (ChemPartner, CPB-P22-31645)+800 μL 1× kinase buffer. 5. Preparation of 2×ATP (150 μM) (Promega, G9101) working solution: 12 μL 10 mM ATP+800 μL 1× kinase buffer. 6. 25 nL of compound was transferred to a 384-well plate using Echo650. 7. 2.5 μL of 2×KIF18A from Step 4 (final concentration of 30 nM) was added to the 384-well plate and the plate was incubated at 25° C. for 15 minutes. 8. 2.5 μL of 2×ATP from Step 5 (final concentration of 150 μM) was added to the 384-well plate and the plate was incubated at 25° C. for 15 minutes. 9. 5 μL ADP-Glo™ Reagent (Promega, G9101) was added to the 384-well plate and the plate was incubated at 25° C. for 40 minutes. 10. 10 μL of kinase detection reagent (Promega, G9101) was added to the 384-well plate and the plate was incubated at 25° C. for 40 minutes. 11. Luminescence values were measured using the EnVision Xcite Multilabel Reader (PerkinElmer, 2105-0020).
Consider `CC1(C)Cn2c(cc3c(NC(=O)c4cnc(NS(=O)(=O)CCO)cc4N4CCC5(CC4)CC5)cccc32)CO1` [US20260070887, Example 454], for which the IC50 was under 50 nM.

For `CC1(C)Cn2c(cc3c(NC(=O)c4ccc(NS(=O)(=O)CCO)cc4N4CCC(=C(F)F)CC4)ccc(Cl)c32)CO1` [US20260070887, Example 522], the IC50 is under 50 nM.

`COc1ccc(C(=O)Nc2cccc3c2ccn3CC2CC2)c(N2CCC3(CC2)CC3)c1` [US20260070887, Example 127]: the IC50 is under 50 nM.

`COc1ccc(NC(=O)c2ccc(NS(=O)(=O)CCO)cc2N2CCC3(CC2)CC3)c2cc3n(c12)CCC(F)(F)C3` [US20260070887, Example 478] came in with an IC50 of under 50 nM.

Take `Nc1ccc(S(=O)(=O)Nc2ccc(C(=O)Nc3ccnc4c3CCN4CC3CC3)c(N3CCC4(CC3)CC4)c2)c(CCO)c1` [US20260070887, Example 32]: the IC50 result is “in the range around 275 nM”.

Compound `Nc1ccc(S(=O)(=O)Nc2ccc(C(=O)Nc3ccnc4c3ccn4CC3CC3)c(N3CCC4(CC3)CC4)c2)c(CCO)c1` [US20260070887, Example 33] showed an IC50 of under 50 nM.

In turn, `COC1c2cc3c(NC(=O)c4ccc(NS(=O)(=O)CCO)cc4N4CCC(=C(F)F)CC4)ccc(C#N)c3n2CCC1(F)F` (centres undefined) [US20260070887, Example 427] came in with an IC50 of under 50 nM.

Turning to `COc1ccc(NC(=O)c2ccc(NS(=O)(=O)CCO)cc2N2CCC3(CC2)CC3)c2cc3n(c12)CCOC3` [US20260070887, Example 404], the IC50 is under 50 nM.

In the case of `CC1(C)Cn2c(cc3c(NC(=O)c4ccc(NS(=O)(=O)c5ccc(N)cc5CCO)cc4N4CCC5(CC4)CC5)ccc(F)c32)CO1` [US20260070887, Example 519], the IC50 entry was “in the range around 275 nM”.
